Columns and labels:
[1] = system: barnyardgrass (Echinochloa crus-galli); assay: Test A preemergence, visual injury rating 0-100 (0 no effect, 100 complete control); format: in vivo; conditions: for Barnyardgrass plant response rating (0 to 100 scale): 125 g ai/ha
Text: (§1) Seeds of plant species selected from barnyardgrass (Echinochloa crus-galli), kochia (Kochia scoparia), ragweed (common ragweed, Ambrosia elatior), ryegrass, Italian (Italian ryegrass, Lolium multiflorum), foxtail, giant (giant foxtail, Setaria faberii), foxtail, green (green foxtail, Setaria viridis), and pigweed (Amaranthus retroflexus) were planted into a blend of loam soil and sand and treated preemergence with a directed soil spray using test chemicals formulated in a non-phytotoxic solvent mixture which included a surfactant.
(§2) At the same time, plants selected from these weed species and also wheat (Triticum aestivum), corn (Zea mays), blackgrass (Alopecurus myosuroides), and galium (catchweed bedstraw, Galium aparine) were planted in pots containing the same blend of loam soil and sand and treated with postemergence applications of test chemicals formulated in the same manner. Plants ranged in height from 2 to 10 cm and were in the one- to two-leaf stage for the postemergence treatment. Treated plants and untreated controls were maintained in a greenhouse for approximately 10 days, after which time all treated plants were compared to untreated controls and visually evaluated for injury. […] A dash (-) response means no test result.

[2] = system: foxtail, giant (giant foxtail, Setaria faberii); assay: Test A preemergence, visual injury rating 0-100; format: in vivo; conditions: for Foxtail, Giant plant response rating (0 to 100 scale): 125 g ai/ha
Text: as §1, §2

kochia (Kochia scoparia) [3] = assay: Test A preemergence, visual injury rating 0-100; format: in vivo
Text: as §1, §2

[4] = system: pigweed (Amaranthus retroflexus); assay: Test A preemergence, visual injury rating 0-100; format: in vivo
Text: as §1, §2

[5] = system: ragweed (common ragweed, Ambrosia elatior); assay: Test A preemergence, visual injury rating 0-100; format: in vivo
Text: as §1, §2

[6] = system: ryegrass, Italian (Italian ryegrass, Lolium multiflorum); assay: Test A preemergence, visual injury rating 0-100; format: in vivo
Text: as §1, §2

[7] = system: barnyardgrass (Echinochloa crus-galli); assay: Test A postemergence, visual injury rating 0-100; format: in vivo; conditions: 0 to 100 scale
Text: as §1, §2

[8] = system: blackgrass (Alopecurus myosuroides); assay: Test A postemergence, visual injury rating 0-100; format: in vivo; conditions: 0 to 100 scale
Text: as §1, §2

corn (Zea mays) = assay: Test A postemergence, visual injury rating 0-100; format: in vivo; conditions: 0 to 100 scale
Text: as §1, §2

[9] = system: foxtail, giant (giant foxtail, Setaria faberii); assay: Test A postemergence, visual injury rating 0-100; format: in vivo; conditions: 0 to 100 scale
Text: as §1, §2

[10] = system: galium (catchweed bedstraw, Galium aparine); assay: Test A postemergence, visual injury rating 0-100; format: in vivo; conditions: 0 to 100 scale
Text: as §1, §2

kochia (Kochia scoparia) [11] = assay: Test A postemergence, visual injury rating 0-100; format: in vivo; conditions: 0 to 100 scale
Text: as §1, §2

[12] = system: pigweed (Amaranthus retroflexus); assay: Test A postemergence, visual injury rating 0-100; format: in vivo; conditions: 0 to 100 scale
Text: as §1, §2

[13] = system: ragweed (common ragweed, Ambrosia elatior); assay: Test A postemergence, visual injury rating 0-100; format: in vivo; conditions: 0 to 100 scale
Text: as §1, §2

[14] = system: ryegrass, Italian (Italian ryegrass, Lolium multiflorum); assay: Test A postemergence, visual injury rating 0-100; format: in vivo; conditions: 0 to 100 scale
Text: as §1, §2

[15] = system: wheat (Triticum aestivum); assay: Test A postemergence, visual injury rating 0-100; format: in vivo; conditions: 0 to 100 scale
Text: as §1, §2

[16] = system: ducksalad (Heteranthera limosa); assay: Test B flooded paddy test, visual rating 0-100; conditions: Flood, 250 g ai/ha, applied to paddy water, rated after 13 to 15 days
[17] = system: barnyardgrass (Echinochloa crus-galli); assay: Test B flooded paddy test, visual rating 0-100; conditions: Flood, 250 g ai/ha, applied to paddy water, rated after 13 to 15 days
rice (Oryza sativa) = assay: Test B flooded paddy test, visual rating 0-100 (0 no effect, 100 complete control); conditions: Flood, 250 g ai/ha, applied to paddy water, rated after 13 to 15 days
[18] = 31 g ai/ha, 0 to 100 scale (0 no effect, 100 complete control), approx. 10 days

Compound: CC1=[N+]([O-])C(C(=O)Nc2cccc(F)c2F)C(c2ccc(F)c(Oc3ccc(F)cn3)c2)C1 (racemic) [Compound 48]
- Barnyardgrass plant response rating [1, 18]: 0
- Barnyardgrass plant response rating (0 to 100 scale) [1]: 90
- Foxtail, Giant plant response rating [2, 18]: 0
- Foxtail, Giant plant response rating (0 to 100 scale) [2]: 90
- Kochia plant response rating (kochia (Kochia scoparia) [3]; [18]): 0
- Kochia plant response rating (0 to 100 scale) (kochia (Kochia scoparia) [3]; 125 g ai/ha): 0
- Pigweed plant response rating [4, 18]: 0
- Pigweed plant response rating (0 to 100 scale) ([4]; 125 g ai/ha): 0
- Ragweed plant response rating [5, 18]: 0
- Ragweed plant response rating (0 to 100 scale) ([5]; 125 g ai/ha): 0
- Ryegrass, Italian plant response rating [6, 18]: 0
- Ryegrass, Italian plant response rating (0 to 100 scale) ([6]; 125 g ai/ha): 20
- Barnyardgrass plant response rating ([7]; 31 g ai/ha): 0
- Barnyardgrass plant response rating ([7]; 125 g ai/ha): 0
- Blackgrass plant response rating ([8]; 31 g ai/ha): 30
- Blackgrass plant response rating ([8]; 125 g ai/ha): 70
- Corn plant response rating (corn (Zea mays); 31 g ai/ha): 0
- Corn plant response rating (corn (Zea mays); 125 g ai/ha): 0
- Foxtail, Giant plant response rating ([9]; 31 g ai/ha): 0
- Foxtail, Giant plant response rating ([9]; 125 g ai/ha): 0
- Galium plant response rating ([10]; 31 g ai/ha): 20
- Galium plant response rating ([10]; 125 g ai/ha): 40
- Kochia plant response rating (kochia (Kochia scoparia) [11]; 31 g ai/ha): 0
- Kochia plant response rating (kochia (Kochia scoparia) [11]; 125 g ai/ha): 0
- Pigweed plant response rating ([12]; 31 g ai/ha): 0
- Pigweed plant response rating ([12]; 125 g ai/ha): 30
- Ragweed plant response rating ([13]; 31 g ai/ha): 0
- Ragweed plant response rating ([13]; 125 g ai/ha): 30
- Ryegrass, Italian plant response rating ([14]; 31 g ai/ha): 30
- Ryegrass, Italian plant response rating ([14]; 125 g ai/ha): 30
- Wheat plant response rating ([15]; 31 g ai/ha): 0
- Wheat plant response rating ([15]; 125 g ai/ha): 0
- Ducksalad plant response rating (0 to 100 scale) [16]: 70
- Barnyardgrass plant response rating (0 to 100 scale) [17]: 20
- Rice plant response rating (0 to 100 scale) (rice (Oryza sativa)): 10

Compound: CC1=[N+]([O-])C(C(=O)Nc2cccc(F)c2F)C(c2cccc(C)n2)C1 (racemic) [Compound 49]
- Barnyardgrass plant response rating (0 to 100 scale) [1]: 10
- Barnyardgrass plant response rating ([1]; 500 g ai/ha, 0 to 100 scale): 20
- Foxtail, Giant plant response rating (0 to 100 scale) [2]: 0
- Foxtail, Giant plant response rating ([2]; 500 g ai/ha, 0 to 100 scale): 40
- Kochia plant response rating (0 to 100 scale) (kochia (Kochia scoparia) [3]; 125 g ai/ha): 0
- Kochia plant response rating (0 to 100 scale) (kochia (Kochia scoparia) [3]; 500 g ai/ha): 0
- Pigweed plant response rating (0 to 100 scale) ([4]; 125 g ai/ha): 0
- Pigweed plant response rating (0 to 100 scale) ([4]; 500 g ai/ha): 0
- Ragweed plant response rating (0 to 100 scale) ([5]; 125 g ai/ha): 0
- Ragweed plant response rating (0 to 100 scale) ([5]; 500 g ai/ha): 0
- Ryegrass, Italian plant response rating (0 to 100 scale) ([6]; 125 g ai/ha): 0
- Ryegrass, Italian plant response rating (0 to 100 scale) ([6]; 500 g ai/ha): 20
- Barnyardgrass plant response rating ([7]; 125 g ai/ha): 0
- Barnyardgrass plant response rating ([7]; 500 g ai/ha): 0
- Blackgrass plant response rating ([8]; 125 g ai/ha): 0
- Blackgrass plant response rating ([8]; 500 g ai/ha): 0
- Corn plant response rating (corn (Zea mays); 125 g ai/ha): 0
- Corn plant response rating (corn (Zea mays); 500 g ai/ha): 0
- Foxtail, Giant plant response rating ([9]; 125 g ai/ha): 0
- Foxtail, Giant plant response rating ([9]; 500 g ai/ha): 0
- Galium plant response rating ([10]; 125 g ai/ha): 0
- Galium plant response rating ([10]; 500 g ai/ha): 0
- Kochia plant response rating (kochia (Kochia scoparia) [11]; 125 g ai/ha): 0
- Kochia plant response rating (kochia (Kochia scoparia) [11]; 500 g ai/ha): 0
- Pigweed plant response rating ([12]; 125 g ai/ha): 0
- Pigweed plant response rating ([12]; 500 g ai/ha): 0
- Ragweed plant response rating ([13]; 125 g ai/ha): 20
- Ragweed plant response rating ([13]; 500 g ai/ha): 20
- Ryegrass, Italian plant response rating ([14]; 125 g ai/ha): 0
- Ryegrass, Italian plant response rating ([14]; 500 g ai/ha): 30
- Wheat plant response rating ([15]; 125 g ai/ha): 0
- Wheat plant response rating ([15]; 500 g ai/ha): 0
- Ducksalad plant response rating (0 to 100 scale) [16]: 0
- Barnyardgrass plant response rating (0 to 100 scale) [17]: 0
- Rice plant response rating (0 to 100 scale) (rice (Oryza sativa)): 0

From patent US11498899B2, “Nitrone herbicides” (FMC Corporation, priority 2016, dated 2022)
